According to patent publication US9833497B2, “Human originated EGF domain proteins and use of the same” (CHENGDU SOURCEBIO LIMITED-LIABILITY COMPANY, priority 2013, dated 2017):

Assays:
Format in all cases: cell-based
[1] = system: Moraxella catarrhalis; assay: MIC against Gram-negative bacteria: Moraxella catarrhalis; details: Moraxella catarrhalis; 96-well plate, 5×10^5 CFU/mL, 37° C., 10 h
Outline: (§1)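 Growth inhibition by human EGF domain proteins was scored in LB liquid culture seeded at 5×10^5 CFU/mL. Protein was applied as a two-fold dilution series in triplicate, with shaking incubation at 37° C; MIC is the lowest concentration giving no growth.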

[2] = system: E. coli DH5α; assay: Antibacterial activity: MIC and growth curve against E. coli DH5α in 96-well plate; details: minimal inhibitory concentration against E. coli DH5α; 96-well plate, 5×10^5 CFU/mL, 37° C., judged after 8 h
Outline: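 Log-phase bacteria (OD600 ~0.5) resuspended in LB at 5×10^5 CFU/mL, exposed to recombinant protein at 50, 25, 12.5 μg/mL final in triplicate, 37 °C shaking at 175 rpm. OD600 read every 30 min; MIC is lowest concentration showing no growth.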

[3] = system: Aeromonas hydrophila; assay: MIC against Gram-negative bacteria: Aeromonas hydrophila; details: Aeromonas hydrophila; 96-well plate, 5×10^5 CFU/mL, 37° C., 10 h
Outline: as §1

[4] = system: Proteus vulgaris; assay: MIC against Gram-negative bacteria: Proteus vulgaris; details: Proteus vulgaris; 96-well plate, 5×10^5 CFU/mL, 37° C., 10 h
Outline: as §1

[5] = system: Klebsiella pneumonia; assay: MIC against Gram-negative bacteria: Klebsiella pneumonia; details: Klebsiella pneumonia; 96-well plate, 5×10^5 CFU/mL, 37° C., 10 h
Outline: as §1

[6] = system: Proteus mirabilis; assay: MIC against Gram-negative bacteria: Proteus mirabilis; details: Proteus mirabilis; 96-well plate, 5×10^5 CFU/mL, 37° C., 10 h
Outline: as §1

[7] = system: Serratia marcescens; assay: MIC against Gram-negative bacteria: Serratia marcescens; details: Serratia marcescens; 96-well plate, 5×10^5 CFU/mL, 37° C., 10 h
Outline: as §1

[8] = system: Enterobacter cloacae; assay: MIC against Gram-negative bacteria: Enterobacter cloacae; details: Enterobacter cloacae; 96-well plate, 5×10^5 CFU/mL, 37° C., 10 h
Outline: as §1

[9] = system: E. coli BL21; assay: MIC against Gram-negative bacteria: E. coli BL21; details: E. coli BL21; 96-well plate, 5×10^5 CFU/mL, 37° C., 10 h
Outline: as §1

[10] = system: Citrobacter diversus; assay: MIC against Gram-negative bacteria: Citrobacter diversus; details: Citrobacter diversus; 96-well plate, 5×10^5 CFU/mL, 37° C., 10 h
Outline: as §1

[11] = system: Pseudomonas aeruginosa; assay: MIC against Gram-negative bacteria: Pseudomonas aeruginosa; details: Pseudomonas aeruginosa; 96-well plate, 5×10^5 CFU/mL, 37° C., 10 h
Outline: as §1

PRT1285 (NQDDCRDHRCQNGAQCMDEVNSYSCLCAEGYSGQLCE; listed as Homo sapiens)
MIC against M. catarrhalis [1]: 25 µg/mL
MIC [2]: 12.5 µg/mL
MIC against A. hydrophila [3]: 25 µg/mL
MIC against P. vulgaris [4]: 12.5 µg/mL
MIC against K. pneumonia [5]: 100 µg/mL
MIC against P. mirabilis [6]: 50 µg/mL
MIC against S. marcescens [7]: 50 µg/mL
MIC against E. cloacae [8]: 12.5 µg/mL
MIC against E. coli BL21 [9]: 12.5 µg/mL
MIC against C. diversus [10]: 12.5 µg/mL
MIC against P. aeruginosa [11]: 12.5 µg/mL

PRT1286 (PKSPCEGTECQNGANCVDQGNRPVCQCLPGFGGPECE; listed as Homo sapiens)
MIC against M. catarrhalis [1]: 25 µg/mL
MIC [2]: 12.5 µg/mL
MIC against A. hydrophila [3]: 50 µg/mL
MIC against P. vulgaris [4]: 25 µg/mL
MIC against K. pneumonia [5]: 50 µg/mL
MIC against P. mirabilis [6]: 50 µg/mL
MIC against S. marcescens [7]: 12.5 µg/mL
MIC against E. cloacae [8]: 12.5 µg/mL
MIC against E. coli BL21 [9]: 50 µg/mL
MIC against C. diversus [10]: 12.5 µg/mL
MIC against P. aeruginosa [11]: 12.5 µg/mL

PRT1287 (EPCRKLYCLHGICQPNATPGPMCHCEAGWVGLHCD; listed as Homo sapiens)
MIC against M. catarrhalis [1]: 50 µg/mL
MIC [2]: 50 µg/mL
MIC against A. hydrophila [3]: 50 µg/mL
MIC against P. vulgaris [4]: 50 µg/mL
MIC against K. pneumonia [5]: 50 µg/mL
MIC against P. mirabilis [6]: 12.5 µg/mL
MIC against S. marcescens [7]: 50 µg/mL
MIC against E. cloacae [8]: 12.5 µg/mL
MIC against E. coli BL21 [9]: 25 µg/mL
MIC against C. diversus [10]: 12.5 µg/mL
MIC against P. aeruginosa [11]: 12.5 µg/mL

PRT1288 (ADGPCHGHKCVHGQCVPLDALSYSCQCQDGYSGALCN; listed as Homo sapiens)
MIC against M. catarrhalis [1]: 50 µg/mL
MIC [2]: 50 µg/mL
MIC against A. hydrophila [3]: 12.5 µg/mL
MIC against P. vulgaris [4]: 25 µg/mL
MIC against K. pneumonia [5]: 25 µg/mL
MIC against P. mirabilis [6]: 12.5 µg/mL
MIC against S. marcescens [7]: 12.5 µg/mL
MIC against E. cloacae [8]: 50 µg/mL
MIC against E. coli BL21 [9]: 25 µg/mL
MIC against C. diversus [10]: 12.5 µg/mL
MIC against P. aeruginosa [11]: 12.5 µg/mL

PRT1289 (LAEPCRGLQCLHGHCQASGTKGAHCVCDPGFSGELCE; listed as Homo sapiens)
MIC against M. catarrhalis [1]: 50 µg/mL
MIC [2]: 12.5 µg/mL
MIC against A. hydrophila [3]: 12.5 µg/mL
MIC against P. vulgaris [4]: 50 µg/mL
MIC against K. pneumonia [5]: 12.5 µg/mL
MIC against P. mirabilis [6]: 12.5 µg/mL
MIC against S. marcescens [7]: 25 µg/mL
MIC against E. cloacae [8]: 25 µg/mL
MIC against E. coli BL21 [9]: 12.5 µg/mL
MIC against C. diversus [10]: 12.5 µg/mL
MIC against P. aeruginosa [11]: 12.5 µg/mL

PRT1290 (KCNPCLSNPCKNDGTCNSDPVDFYRCTCPYGFKGQDCD; listed as Homo sapiens)
MIC against M. catarrhalis [1]: 25 µg/mL
MIC [2]: 50 µg/mL
MIC against A. hydrophila [3]: 25 µg/mL
MIC against P. vulgaris [4]: 12.5 µg/mL
MIC against K. pneumonia [5]: 12.5 µg/mL
MIC against P. mirabilis [6]: 50 µg/mL
MIC against S. marcescens [7]: 12.5 µg/mL
MIC against E. cloacae [8]: 50 µg/mL
MIC against E. coli BL21 [9]: 12.5 µg/mL
MIC against C. diversus [10]: 12.5 µg/mL
MIC against P. aeruginosa [11]: 50 µg/mL

PRT1291 (PIHACISNPCKHGGTCHLKEGEEDGFWCICADGFEGENCE; listed as Homo sapiens)
MIC against M. catarrhalis [1]: 12.5 µg/mL
MIC [2]: 50 µg/mL
MIC against A. hydrophila [3]: 12.5 µg/mL
MIC against P. vulgaris [4]: 12.5 µg/mL
MIC against K. pneumonia [5]: 50 µg/mL
MIC against P. mirabilis [6]: 50 µg/mL
MIC against S. marcescens [7]: 12.5 µg/mL
MIC against E. cloacae [8]: 25 µg/mL
MIC against E. coli BL21 [9]: 100 µg/mL
MIC against C. diversus [10]: 50 µg/mL
MIC against P. aeruginosa [11]: 25 µg/mL

PRT1292 (NVDDCEDNDCENNSTCVDGINNYTCLCPPEYTGELCE; listed as Homo sapiens)
MIC against M. catarrhalis [1]: 50 µg/mL
MIC [2]: 12.5 µg/mL
MIC against A. hydrophila [3]: 25 µg/mL
MIC against P. vulgaris [4]: 50 µg/mL
MIC against K. pneumonia [5]: 12.5 µg/mL
MIC against P. mirabilis [6]: 12.5 µg/mL
MIC against S. marcescens [7]: 12.5 µg/mL
MIC against E. cloacae [8]: 50 µg/mL
MIC against E. coli BL21 [9]: 12.5 µg/mL
MIC against C. diversus [10]: 12.5 µg/mL
MIC against P. aeruginosa [11]: 12.5 µg/mL

PRT1293 (KLDFCAQDLNPCQHDSKCILTPKGFKCDCTPGYVGEHCD; listed as Homo sapiens)
MIC against M. catarrhalis [1]: 12.5 µg/mL
MIC [2]: 25 µg/mL
MIC against A. hydrophila [3]: 50 µg/mL
MIC against P. vulgaris [4]: 50 µg/mL
MIC against K. pneumonia [5]: 50 µg/mL
MIC against P. mirabilis [6]: 12.5 µg/mL
MIC against S. marcescens [7]: 12.5 µg/mL
MIC against E. cloacae [8]: 12.5 µg/mL
MIC against E. coli BL21 [9]: 12.5 µg/mL
MIC against C. diversus [10]: 12.5 µg/mL
MIC against P. aeruginosa [11]: 25 µg/mL

PRT1294 (DFDDCQDNKCKNGAHCTDAVNGYTCICPEGYSGLFCE; listed as Homo sapiens)
MIC against M. catarrhalis [1]: 12.5 µg/mL
MIC [2]: 50 µg/mL
MIC against A. hydrophila [3]: 12.5 µg/mL
MIC against P. vulgaris [4]: 12.5 µg/mL
MIC against K. pneumonia [5]: 12.5 µg/mL
MIC against P. mirabilis [6]: 50 µg/mL
MIC against S. marcescens [7]: 50 µg/mL
MIC against E. cloacae [8]: 50 µg/mL
MIC against E. coli BL21 [9]: 12.5 µg/mL
MIC against C. diversus [10]: 50 µg/mL
MIC against P. aeruginosa [11]: 50 µg/mL

PRT1295 (RTSPCDNFDCQNGAQCIVRINEPICQCLPGYQGEKCE; listed as Homo sapiens)
MIC against M. catarrhalis [1]: 50 µg/mL
MIC [2]: 12.5 µg/mL
MIC against A. hydrophila [3]: 50 µg/mL
MIC against P. vulgaris [4]: 50 µg/mL
MIC against K. pneumonia [5]: 50 µg/mL
MIC against P. mirabilis [6]: 12.5 µg/mL
MIC against S. marcescens [7]: 12.5 µg/mL
MIC against E. cloacae [8]: 12.5 µg/mL
MIC against E. coli BL21 [9]: 50 µg/mL
MIC against C. diversus [10]: 12.5 µg/mL
MIC against P. aeruginosa [11]: 12.5 µg/mL

PRT1296 (GCEPCHKKVCAHGTCQPSSQAGFTCECQEGWMGPLCD; listed as Homo sapiens)
MIC against M. catarrhalis [1]: 12.5 µg/mL
MIC [2]: 50 µg/mL
MIC against A. hydrophila [3]: 100 µg/mL
MIC against P. vulgaris [4]: 50 µg/mL
MIC against K. pneumonia [5]: 50 µg/mL
MIC against P. mirabilis [6]: 25 µg/mL
MIC against S. marcescens [7]: 25 µg/mL
MIC against E. cloacae [8]: 25 µg/mL
MIC against E. coli BL21 [9]: 12.5 µg/mL
MIC against C. diversus [10]: 50 µg/mL
MIC against P. aeruginosa [11]: 25 µg/mL

PRT1297 (NACLSSPCKNNGTCTQDPVELYRCACPYSYKGKDCT; listed as Homo sapiens)
MIC against M. catarrhalis [1]: 50 µg/mL
MIC [2]: 12.5 µg/mL
MIC against A. hydrophila [3]: 12.5 µg/mL
MIC against P. vulgaris [4]: 12.5 µg/mL
MIC against K. pneumonia [5]: 25 µg/mL
MIC against P. mirabilis [6]: 25 µg/mL
MIC against S. marcescens [7]: 50 µg/mL
MIC against E. cloacae [8]: 50 µg/mL
MIC against E. coli BL21 [9]: 50 µg/mL
MIC against C. diversus [10]: 25 µg/mL
MIC against P. aeruginosa [11]: 12.5 µg/mL
